According to patent US11168086B2, “Methods of synthesizing pyrazine compounds” (Hoffmann-La Roche Inc., priority 2015, dated 2021):

Tested on: HBV
Assay: HBV inhibition assay: anti-HBV activity in vitro in HepG2.2.15 cells (extracellular HBV DNA by qPCR)
Assay type: cell-based
Conditions: five days after compound treatment, extracellular HBV DNA in culture supernatant by qPCR, concentration at which HBV replication is inhibited by 50%
From the text: Example 441: HBV Inhibition Assays
Cell Line and Culture Conditions:
HepG2.2.15 is a stably-transfected cell line containing the HBV genome. It is derived from the hepatoblastoma cell line Hep G2 (American Type Culture Collection, ATCC® HB-8065™) by the published procedures described in reference: MA Selles et al. Proc. Natl. Acad. Sci. USA 1987, 84, 1005-1009. The cell line was maintained in Dulbecco's modified Eagle's medium (DMEM)-F12 medium supplemented with 10% fetal bovine serum, 100 U/mL penicillin, 100 μg/mL streptomycin, and 0.5 mg/mL of G418.
Anti-HBV Activity In Vitro:
HepG2.2.15 cells were seeded into 96-well plates (3×10^4 cells in 100 μL media per well) and incubated overnight at 37° C. The test compounds were serially half-log diluted in DMSO, then diluted 100 times in culture media. 100 μL diluted compounds were added into the plates to reach 0.5% final concentration of DMSO in every well. Five days after compound treatment, culture supernatant was collected for further analysis.
For quantitative PCR detection of extracellular HBV DNA, culture supernatant was processed by Proteinase K digestion. After heat inactivation of the enzyme, the samples were subjected to HBV DNA quantification by qPCR. The effective compound concentration at which
HBV replication is inhibited by 50% (EC50) was determined.

SMILES | EC50 | EC50 (Hepatitis B virus, 120 h)
CC1C(C#N)CC(=O)N1c1cnn2c1CN(C(=O)Nc1cc(F)c(F)c(F)c1)[C@@H](C)C2 (single isomer, unassigned) [Example 420-1] | 27 nM | –
CC1C(C#N)CC(=O)N1c1cnn2c1CN(C(=O)Nc1cc(F)c(F)c(F)c1)[C@@H](C)C2 (single isomer, unassigned) [Example 420-2] | 30 nM | –
CC1C(C#N)CC(=O)N1c1cnn2c1CN(C(=O)Nc1cc(F)c(F)c(F)c1)[C@@H](C)C2 (single isomer, unassigned) [Example 420-3] | 3 nM | –
C[C@H]1Cn2ncc(N3CC(c4ccccc4)C(O)C3=O)c2CN1C(=O)Nc1cc(F)c(F)c(F)c1 (single isomer, unassigned) [Example 438-1] | 10 nM | –
C[C@H]1Cn2ncc(N3CC(c4ccccc4)C(O)C3=O)c2CN1C(=O)Nc1cc(F)c(F)c(F)c1 (single isomer, unassigned) [Example 438-2] | 108 nM | –
C[C@H]1Cn2ncc(N3CC(c4ccccc4)C(O)C3=O)c2CN1C(=O)Nc1cc(F)c(F)c(F)c1 (single isomer, unassigned) [Example 438-3] | 44 nM | –
C[C@H]1Cn2ncc(N3CC(c4ccccc4)C(O)C3=O)c2CN1C(=O)Nc1cc(F)c(F)c(F)c1 (single isomer, unassigned) [Example 438-4] | 10 nM | –
O=C(Nc1ccc(F)c(Cl)c1)N1CCn2ncc(-c3ccc(F)cc3)c2C1 [Example 21, N-(3-chloro-4-fluoro-phenyl)-3-(4-fluorophenyl)-6,7-dihydro-4H-pyrazolo[1,5-a]pyrazine-5-carboxamide] | – | 76 nM
O=C(Nc1ccc(F)c(Cl)c1)N1CCn2ncc(-c3ccccc3F)c2C1 [Example 24, N-(3-chloro-4-fluoro-phenyl)-3-(2-fluorophenyl)-6,7-dihydro-4H-pyrazolo[1,5-a]pyrazine-5-carboxamide] | – | 33 nM
O=C(Nc1cccc(Cl)c1)N1CCn2ncc(-c3ccccc3F)c2C1 [Example 30, N-(3-chlorophenyl)-3-(2-fluorophenyl)-6,7-dihydro-4H-pyrazolo[1,5-a]pyrazine-5-carboxamide] | – | 72 nM
O=C(Nc1ccc(F)cc1)N1CCn2ncc(-c3ccccc3F)c2C1 [Example 33, 3-(2-fluorophenyl)-N-(4-fluorophenyl)-6,7-dihydro-4H-pyrazolo[1,5-a]pyrazine-5-carboxamide] | – | 85 nM
O=C(Nc1ccc(F)c(C(F)(F)F)c1)N1CCn2ncc(-c3ccccc3F)c2C1 [Example 34, 3-(2-fluorophenyl)-N-[4-fluoro-3-(trifluoromethyl)phenyl]-6,7-dihydro-4H-pyrazolo[1,5-a]pyrazine-5-carboxamide] | – | 52 nM
O=C(Nc1ccc(F)c(Cl)c1)N1CCn2ncc(-c3ccc(F)cc3F)c2C1 [Example 50, N-(3-chloro-4-fluoro-phenyl)-3-(2,4-difluorophenyl)-6,7-dihydro-4H-pyrazolo[1,5-a]pyrazine-5-carboxamide] | – | 36 nM
O=C(Nc1cc(F)c(F)c(F)c1)N1CCn2ncc(-c3ccc(F)cc3F)c2C1 [Example 51, 3-(2,4-difluorophenyl)-N-(3,4,5-trifluorophenyl)-6,7-dihydro-4H-pyrazolo[1,5-a]pyrazine-5-carboxamide] | – | 68 nM
CC1Cn2ncc(-c3ccc(F)cc3)c2CN1C(=O)Nc1cc(F)c(F)c(F)c1 (centres unmarked) [Example 53, 3-(4-fluorophenyl)-6-methyl-N-(3,4,5-trifluorophenyl)-6,7-dihydro-4H-pyrazolo[1,5-a]pyrazine-5-carboxamide] | – | 34 nM
CC1Cn2ncc(-c3ccc(F)cc3)c2CN1C(=O)Nc1ccc(F)c(Cl)c1 (centres unmarked) [Example 61, N-(3-chloro-4-fluoro-phenyl)-3-(4-fluorophenyl)-6-methyl-6,7-dihydro-4H-pyrazolo[1,5-a]pyrazine-5-carboxamide] | – | 29 nM
O=C(Nc1ccc(F)c(Cl)c1)N1CCn2ncc(-c3cc(C(F)(F)F)ccn3)c2C1 [Example 67, N-(3-chloro-4-fluoro-phenyl)-3-[4-(trifluoromethyl)-2-pyridyl]-6,7-dihydro-4H-pyrazolo[1,5-a]pyrazine-5-carboxamide] | – | 29 nM
